These results are taken from US8771665B2 (Cocrystal Discovery, Inc., priority 2010, dated 2014).

The term IC50 denotes the midpoint of a concentration-inhibition curve. Lower therefore signals greater potency in that assay.

Structures can show the parent of a compound that is named as a salt. Where only a bound is given, the exact number is not on record here.

The test has as its target T1, HCV1b NS5B polymerase delta 21 (Hepatitis C virus genotype 1b, UniProt P26663).
T1 construct: purified HCV1b NS5B polymerase delta 21
The experiment in a line: RNA-Dependent RNA HCV NS5B (Polymerase) Assay and IC50 Determination. Format: biochemical. The method, boiled down: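 Purified NS5B Δ21 (0.6 μg) with polyA:U16 template, 10 μM UTP plus α-32P UTP in Tris-HCl pH 7.5, 5 mM MgCl2, 0.5% Triton X-100, 60 min at 23°C with varied compound concentrations. Radiolabelled RNA captured on filters, quantified by phosphorimaging; IC50 from triplicate assays.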

T1 sequence (P26663 2420-2989): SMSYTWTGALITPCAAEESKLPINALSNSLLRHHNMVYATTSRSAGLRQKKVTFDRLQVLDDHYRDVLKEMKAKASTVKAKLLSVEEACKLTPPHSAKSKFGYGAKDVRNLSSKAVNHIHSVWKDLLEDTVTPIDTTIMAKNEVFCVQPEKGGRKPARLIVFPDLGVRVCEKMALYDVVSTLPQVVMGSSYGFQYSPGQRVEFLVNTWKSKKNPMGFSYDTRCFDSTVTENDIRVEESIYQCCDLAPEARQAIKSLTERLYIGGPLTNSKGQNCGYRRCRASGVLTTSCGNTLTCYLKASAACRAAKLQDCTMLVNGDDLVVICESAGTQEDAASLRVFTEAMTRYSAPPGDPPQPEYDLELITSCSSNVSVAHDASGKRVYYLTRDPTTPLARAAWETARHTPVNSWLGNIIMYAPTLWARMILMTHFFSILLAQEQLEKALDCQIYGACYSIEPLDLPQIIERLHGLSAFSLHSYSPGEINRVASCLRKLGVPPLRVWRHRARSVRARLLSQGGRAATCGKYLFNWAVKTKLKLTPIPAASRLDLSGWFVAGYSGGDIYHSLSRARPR

Turning to `CN1CCC(c2cc(-c3ccccc3)sc2C(=O)O)=C(C2CCC(C(F)(F)F)CC2)C1` (centres unmarked) [Example 064, 3-[1-Methyl-5-(4-trifluoromethyl-cyclohexyl)-1,2,3,6-tetrahydro-pyridin-4-yl]-5-phenyl-thiophene-2-carboxylic acid], the IC50 is more than 10 µM.

In turn, `CC1CCC(C2=C(c3cc(C#CC(C)(C)C)sc3C(=O)O)CN(CCO)CC2)CC1` (centres unmarked) [Example 113, 5-(3,3-Dimethyl-but-1-ynyl)-3-[1-(2-hydroxy-ethyl)-4-(4-methyl-cyclohexyl)-1,2,5,6-tetrahydro-pyridin-3-yl]-thiophene-2-carboxylic acid] returned an IC50 of less than 3 µM.

Consider `COC(=O)c1sc(-c2ccc(NC(=O)c3cscn3)cc2)cc1C1=C(C2CCC(C)CC2)CN(C)CC1` (centres unmarked) [Example 013A], for which the half-inhibitory concentration (IC50) is less than 3 µM.

The molecule `CCN1CCC(c2cc(C#CCC(C)C)sc2C(=O)O)=C(C2CCC(C)CC2)C1` (centres unmarked) [Example 029, 3-[1-Ethyl-5-(4-methyl-cyclohexyl)-1,2,3,6-tetrahydro-pyridin-4-yl]-5-(4-methyl-pent-1-ynyl)-thiophene-2-carboxylic acid] yielded a concentration for half-maximal inhibition (IC50) of less than 3 µM.

Take `CC1CCC(C2=C(c3cc(-c4ccccc4)sc3C(=O)O)CCN(C(=O)c3cn(C)c4ccccc34)C2)CC1` (centres unmarked) [Example 098, 3-[5-(4-Methyl-cyclohexyl)-1-(1-methyl-1H-indole-3-carbonyl)-1,2,3,6-tetrahydro-pyridin-4-yl]-5-phenyl-thiophene-2-carboxylic acid]: the IC50 is more than 10 µM.

As to `CC1CCC(C2=C(c3cc(-c4ccc(N)cc4)sc3C(=O)O)CCN(C)C2)CC1` (centres unmarked) [Example 004, 5-(4-Amino-phenyl)-3-[1-methyl-5-(4-methyl-cyclohexyl)-1,2,3,6-tetrahydro-pyridin-4-yl]-thiophene-2-carboxylic acid], the half-inhibitory concentration (IC50) was less than 3 µM.

For `CC1CCC(C2=C(c3cc(-c4ccccc4)sc3C(=O)O)CCN(C(=O)c3cncn3C)C2)CC1` (centres unmarked) [Example 156, 3-[5-(4-Methyl-cyclohexyl)-1-(3-methyl-3H-imidazole-4-carbonyl)-1,2,3,6-tetrahydro-pyridin-4-yl]-5-phenyl-thiophene-2-carboxylic acid], the IC50 was more than 10 µM.

`CCN1CCC(c2cc(C#CC3CC3)sc2C(=O)O)=C(C2CCC(C)CC2)C1` (centres unmarked) [Example 017, 5-Cyclopropylethynyl-3-[1-ethyl-5-(4-methyl-cyclohexyl)-1,2,3,6-tetrahydro-pyridin-4-yl]-thiophene-2-carboxylic acid]: the IC50 is less than 3 µM.

The molecule `CC1CCC(C2=C(c3cc(-c4ccccc4)sc3C(=O)O)CCN(Cc3ccccn3)C2)CC1` (centres unmarked) [Example 087, 3-[5-(4-Methyl-cyclohexyl)-1-pyridin-2-ylmethyl-1,2,3,6-tetrahydro-pyridin-4-yl]-5-phenyl-thiophene-2-carboxylic acid] came in with an IC50 of less than 3 µM.

`CC1CCC(C2=C(c3cc(I)sc3C(=O)O)CCN(C)C2)CC1` (centres unmarked) [Example 002, 5-Iodo-3-[1-methyl-5-(4-methyl-cyclohexyl)-1,2,3,6-tetrahydro-pyridin-4-yl]-thiophene-2-carboxylic acid] returned a concentration for half-maximal inhibition (IC50) of more than 10 µM.

`CC1CCC(C2=C(c3cc(I)sc3C(=O)O)CNCC2)CC1` (centres unmarked) [Example 171, 5-Iodo-3-[4-(4-methyl-cyclohexyl)-1,2,5,6-tetrahydro-pyridin-3-yl]-thiophene-2-carboxylic acid] yielded an IC50 of more than 10 µM.

As for `CCN1CCC(c2cc(C#CC(C)(C)NC(=O)c3cscn3)sc2C(=O)O)=C(C2CCC(C)CC2)C1` (centres unmarked) [Example 022, 3-[1-Ethyl-5-(4-methyl-cyclohexyl)-1,2,3,6-tetrahydro-pyridin-4-yl]-5-{3-methyl-3-[(thiazole-4-carbonyl)-amino]-but-1-ynyl}-thiophene-2-carboxylic acid], the IC50 is more than 10 µM.

`CCc1cc(CC)n2nc(CN3CCC(c4cc(-c5ccccc5)sc4C(=O)O)=C(C4CCC(C)CC4)C3)nc2n1` (centres unmarked) [Example 150, 3-[1-(5,7-Diethyl-[1,2,4]triazolo[1,5-a]pyrimidin-2-ylmethyl)-5-(4-methyl-cyclohexyl)-1,2,3,6-tetrahydro-pyridin-4-yl]-5-phenyl-thiophene-2-carboxylic acid] gave an IC50 of less than 3 µM.

The molecule `CCOC(C#Cc1cc(C2=C(C3CCC(C)CC3)CN(CC)CC2)c(C(=O)O)s1)OCC` (centres unmarked) [Example 033, 5-(3,3-Diethoxy-prop-1-ynyl)-3-[1-ethyl-5-(4-methyl-cyclohexyl)-1,2,3,6-tetrahydro-pyridin-4-yl]-thiophene-2-carboxylic acid] displayed an IC50 of 3 to 10 µM.

As to `CC1CCC(C2=C(c3cc(-c4ccccc4)sc3C(=O)O)CCN(Cc3ccnc(Br)c3)C2)CC1` (centres unmarked) [Example 144, 3-[1-(2-Bromo-pyridin-4-ylmethyl)-5-(4-methyl-cyclohexyl)-1,2,3,6-tetrahydro-pyridin-4-yl]-5-phenyl-thiophene-2-carboxylic acid], the concentration for half-maximal inhibition (IC50) lay within 3 to 10 µM.

Take `CC1CCC(C2=C(c3cc(-c4ccc(-c5nc6cccnc6[nH]5)cc4)sc3C(=O)O)CCN(C)C2)CC1` (centres unmarked) [Example 140, 5-[4-(3H-Imidazol-[4,5-b]pyridin-2-yl)-phenyl]-3-[1-methyl-5-(4-methyl-cyclohexyl)-1,2,3,6-tetrahydro-pyridin-4-yl]-thiophene-2-carboxylic acid]: the IC50 was in the range of 3 to 10 µM.

The molecule `CC1CCC(C2=C(c3cc(-c4ccccc4)sc3C(=O)O)CCN(Cc3ccc(Cl)cc3)C2)CC1` (centres unmarked) [Example 086, 3-[1-(4-Chloro-benzyl)-5-(4-methyl-cyclohexyl)-1,2,3,6-tetrahydro-pyridin-4-yl]-5-phenyl-thiophene-2-carboxylic acid] gave a concentration for half-maximal inhibition (IC50) of 3 to 10 µM.

The molecule `CC1CCC(C2=C(c3cc(-c4ccc(-c5cc6nccc(N)n6n5)cc4)sc3C(=O)O)CCN(C)C2)CC1` (centres unmarked) [Example 132, 5-[4-(7-Amino-pyrazolo[1,5-a]pyrimidin-2-yl)-phenyl]-3-[1-methyl-5-(4-methyl-cyclohexyl)-1,2,3,6-tetrahydro-pyridin-4-yl]-thiophene-2-carboxylic acid, hydrochloride salt] showed an IC50 of less than 3 µM.

Molecule `CC1CCC(C2=C(c3cc(-c4ccc(NC(=O)c5cscn5)cc4)sc3C(=O)O)CN(C)CC2)CC1` (centres unmarked) [Example 167, 3-[1-Methyl-4-(4-methyl-cyclohexyl)-1,2,5,6-tetrahydro-pyridin-3-yl]-5-{4-[(thiazole-4-carbonyl)-amino]-phenyl}-thiophene-2-carboxylic acid] had an IC50 of less than 3 µM.

On to `CC1CCC(C2=C(c3cc(-c4ccccc4)sc3C(=O)O)CCN(CC(=O)O)C2)CC1` (centres unmarked) [Example 082, 3-[1-Carboxymethyl-5-(4-methyl-cyclohexyl)-1,2,3,6-tetrahydro-pyridin-4-yl]-5-phenyl-thiophene-2-carboxylic acid], for which the 50% inhibitory concentration (IC50) is 3 to 10 µM.

`CC1CCC(C2=C(c3cc(-c4ccc(NC(=O)OC(C)(C)C)cc4)sc3C(=O)O)CCN(C)C2)CC1` (centres unmarked) [Example 012, 5-(4-tert-Butoxycarbonylamino-phenyl)-3-[1-methyl-5-(4-methyl-cyclohexyl)-1,2,3,6-tetrahydro-pyridin-4-yl]-thiophene-2-carboxylic acid] gave an IC50 of more than 10 µM.

As for `CC1CCC(C2=C(c3cc(C#Cc4ccccc4)sc3C(=O)O)CCN(C)C2)CC1` (centres unmarked) [Example 010, 3-[1-Methyl-5-(4-methyl-cyclohexyl)-1,2,3,6-tetrahydro-pyridin-4-yl]-5-phenylethynyl-thiophene-2-carboxylic acid], the IC50 was more than 10 µM.

Consider `CC1CCC(C2=C(c3cc(-c4ccccc4)sc3C(=O)O)CCN(C(=O)c3nccnc3N)C2)CC1` (centres unmarked) [Example 155, 3-[1-(3-Amino-pyrazine-2-carbonyl)-5-(4-methyl-cyclohexyl)-1,2,3,6-tetrahydro-pyridin-4-yl]-5-phenyl-thiophene-2-carboxylic acid], for which the IC50 is more than 10 µM.

The molecule `CC1CCC(C2=C(c3cc(-c4ccc(C5=CC6N=CC=CC6O5)cc4)sc3C(=O)O)CCN(C)C2)CC1` (centres unmarked) [Example 135, 5-[4-(3a,7a-Dihydro-furo[3,2-b]pyridin-2-yl)-phenyl]-3-[1-methyl-5-(4-methyl-cyclohexyl)-1,2,3,6-tetrahydro-pyridin-4-yl]-thiophene-2-carboxylic acid] showed an IC50 of less than 3 µM.

`CC1CCC(C2=C(c3cc(-c4ccccc4)sc3C(=O)O)CN(C)CC2)CC1` (centres unmarked) [Example 041, 3-[1-Methyl-4-(4-methyl-cyclohexyl)-1,2,5,6-tetrahydro-pyridin-3-yl]-5-phenyl-thiophene-2-carboxylic acid] came in with an IC50 of less than 3 µM.

Turning to `CC1CCC(C2=C(c3cc(-c4ccccc4)sc3C(=O)O)CCN(Cc3ccnc(-c4ccc(F)cc4)c3)C2)CC1` (centres unmarked) [Example 147, 3-[1-[2-(4-Fluoro-phenyl)-pyridin-4-ylmethyl]-5-(4-methyl-cyclohexyl)-1,2,3,6-tetrahydro-pyridin-4-yl]-5-phenyl-thiophene-2-carboxylic acid], the concentration for half-maximal inhibition (IC50) was more than 10 µM.

For `CC1CCC(C2=C(c3cc(-c4ccccc4)sc3C(=O)O)CCN(Cc3ccnc(-c4cccs4)c3)C2)CC1` (centres unmarked) [Example 145, 3-[5-(4-Methyl-cyclohexyl)-1-(2-thiophen-2-yl-pyridin-4-ylmethyl)-1,2,3,6-tetrahydro-pyridin-4-yl]-5-phenyl-thiophene-2-carboxylic acid], the IC50 is more than 10 µM.

Regarding `CCCC(=O)OCOC(=O)c1sc(-c2ccc(NC(=O)c3cscn3)cc2)cc1C1=C(C2CCC(C)CC2)CN(C)CC1` (centres unmarked) [Example 105, 3-[1-Methyl-5-(4-methyl-cyclohexyl)-1,2,3,6-tetrahydro-pyridin-4-yl]-5-{4-[(thiazole-4-carbonyl)-amino]-phenyl}-thiophene-2-carboxylic acid butyryloxymethyl ester], the concentration for half-maximal inhibition (IC50) lay in the range of 3 to 10 µM.

As to `COC(=O)N1CCC(c2cc(-c3ccccc3)sc2C(=O)O)=C(C2CCC(C)CC2)C1` (centres unmarked) [Example 074, 4-(2-Carboxy-5-phenyl-thiophen-3-yl)-5-(4-methyl-cyclohexyl)-3,6-dihydro-2H-pyridine-1-carboxylic acid methyl ester], the IC50 was 3 to 10 µM.
